Test results: publication PMC5240995, “Lysine Decarboxylase with an Enhanced Affinity for Pyridoxal 5-Phosphate by Disulfide Bond-Mediated Spatial Reconstitution” (PLoS ONE, 2017)

Target: T1, SrLDC (Pseudoselenomonas ruminantium, UniProt O50657, A225C/T302C)
T1 construct: gene ldc
Experiment: isothermal titration calorimetry
Format: binding

T1 sequence (O50657 whole entry A225C/T302C): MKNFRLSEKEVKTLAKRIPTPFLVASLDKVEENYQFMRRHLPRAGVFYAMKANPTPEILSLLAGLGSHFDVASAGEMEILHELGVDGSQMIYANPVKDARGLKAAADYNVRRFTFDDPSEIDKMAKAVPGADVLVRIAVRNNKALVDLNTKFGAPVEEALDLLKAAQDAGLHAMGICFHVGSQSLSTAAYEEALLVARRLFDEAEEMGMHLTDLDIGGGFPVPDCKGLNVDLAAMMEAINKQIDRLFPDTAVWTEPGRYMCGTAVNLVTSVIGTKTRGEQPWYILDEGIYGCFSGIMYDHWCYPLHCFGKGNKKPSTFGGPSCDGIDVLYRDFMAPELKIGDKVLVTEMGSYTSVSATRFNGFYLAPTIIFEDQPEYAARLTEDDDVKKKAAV

Kd: 21 µM
Compound: Cc1ncc(COP(=O)(O)O)c(C=O)c1O [pyridoxal 5-phosphate]
